Results: patent US11491228B2, “Hydrogels and uses thereof” (Massachusetts Institute of Technology, priority 2018, dated 2022)

Assay: Release of taxanes from PEG alkynoate-TREN (beta-aminoacrylate) gel into PBS, HPLC
Format: physicochemical
Conditions: 37° C.
Procedure: Samples were stored at +4° C. […] The wavelength of detection was 227 nm. Phases were A: water, B: MeCN.

CC(=O)O[C@@]12CO[C@@H]1C[C@H](O)[C@@]1(C)C(=O)[C@H](O)C3=C(C)[C@@H](OC(=O)[C@H](O)[C@@H](NC(=O)OC(C)(C)C)c4ccccc4)C[C@@](O)([C@@H](OC(=O)c4ccccc4)[C@H]21)C3(C)C [Docetaxel, docetaxel]
Concentrations of taxane following release from PEG alkynoate-TREN gels (1 h, average): 39.29 ng/mL | Concentrations of taxane following release from PEG alkynoate-TREN gels (1 h, replicate A): -152.3 ng/mL | Concentrations of taxane following release from PEG alkynoate-TREN gels (1 h, replicate B): 422.4 ng/mL | Concentrations of taxane following release from PEG alkynoate-TREN gels (1 h, replicate C): -152.3 ng/mL | Concentrations of taxane following release from PEG alkynoate-TREN gels (2 h, average): 201.4 ng/mL | Concentrations of taxane following release from PEG alkynoate-TREN gels (2 h, replicate A): -152.3 ng/mL | Concentrations of taxane following release from PEG alkynoate-TREN gels (2 h, replicate B): 555 ng/mL | Concentrations of taxane following release from PEG alkynoate-TREN gels (2 h, replicate C): 201.4 ng/mL | Concentrations of taxane following release from PEG alkynoate-TREN gels (5 h, average): 363.5 ng/mL | Concentrations of taxane following release from PEG alkynoate-TREN gels (5 h, replicate A): 1041 ng/mL | Concentrations of taxane following release from PEG alkynoate-TREN gels (5 h, replicate B): 201.4 ng/mL | Concentrations of taxane following release from PEG alkynoate-TREN gels (5 h, replicate C): -152.3 ng/mL | Concentrations of taxane following release from PEG alkynoate-TREN gels (20 h, average): 267.7 ng/mL | Concentrations of taxane following release from PEG alkynoate-TREN gels (20 h, replicate A): 643.4 ng/mL | Concentrations of taxane following release from PEG alkynoate-TREN gels (20 h, replicate B): 311.9 ng/mL | Concentrations of taxane following release from PEG alkynoate-TREN gels (20 h, replicate C): -152.3 ng/mL | Concentrations of taxane following release from PEG alkynoate-TREN gels (48 h, average): 1127.9 ng/mL | Concentrations of taxane following release from PEG alkynoate-TREN gels (48 h, replicate A): 984.7 ng/mL | Concentrations of taxane following release from PEG alkynoate-TREN gels (48 h, replicate B): 1003 ng/mL | Concentrations of taxane following release from PEG alkynoate-TREN gels (48 h, replicate C): 1396 ng/mL | % released from PEG alkynoate-TREN gels (Table 3, 1 h, average): 0.05239% | % released from PEG alkynoate-TREN gels (Table 3, 1 h, replicate A): −0.203% | % released from PEG alkynoate-TREN gels (Table 3, 1 h, replicate B): 0.5632% | % released from PEG alkynoate-TREN gels (Table 3, 1 h, replicate C): −0.203% | % released from PEG alkynoate-TREN gels (Table 3, 2 h, average): 0.2685% | % released from PEG alkynoate-TREN gels (Table 3, 2 h, replicate A): −0.203% | % released from PEG alkynoate-TREN gels (Table 3, 2 h, replicate B): 0.74% | % released from PEG alkynoate-TREN gels (Table 3, 2 h, replicate C): 0.2685% | % released from PEG alkynoate-TREN gels (Table 3, 5 h, average): 0.4846% | % released from PEG alkynoate-TREN gels (Table 3, 5 h, replicate A): 1.388% | % released from PEG alkynoate-TREN gels (Table 3, 5 h, replicate B): 0.2685% | % released from PEG alkynoate-TREN gels (Table 3, 5 h, replicate C): −0.203% | % released from PEG alkynoate-TREN gels (Table 3, 20 h, average): 0.3569% | % released from PEG alkynoate-TREN gels (Table 3, 20 h, replicate A): 0.8579% | % released from PEG alkynoate-TREN gels (Table 3, 20 h, replicate B): 0.4158% | % released from PEG alkynoate-TREN gels (Table 3, 20 h, replicate C): −0.203% | % released from PEG alkynoate-TREN gels (Table 3, 48 h, average): 1.504% | % released from PEG alkynoate-TREN gels (Table 3, 48 h, replicate A): 1.3129% | % released from PEG alkynoate-TREN gels (Table 3, 48 h, replicate B): 1.337% | % released from PEG alkynoate-TREN gels (Table 3, 48 h, replicate C): 1.862% | % released from PEG alkynoate-TREN gels (Table 4, 1 h, average): 2.074% | % released from PEG alkynoate-TREN gels (Table 4, 1 h, replicate A): 2.465% | % released from PEG alkynoate-TREN gels (Table 4, 1 h, replicate B): 2.016% | % released from PEG alkynoate-TREN gels (Table 4, 1 h, replicate C): 1.741% | % released from PEG alkynoate-TREN gels (Table 4, 6 h, average): 4.82% | % released from PEG alkynoate-TREN gels (Table 4, 6 h, replicate A): 6.195% | % released from PEG alkynoate-TREN gels (Table 4, 6 h, replicate B): 4.946% | % released from PEG alkynoate-TREN gels (Table 4, 6 h, replicate C): 3.318% | % released from PEG alkynoate-TREN gels (Table 4, 24 h, average): 7.196% | % released from PEG alkynoate-TREN gels (Table 4, 24 h, replicate A): 11.23% | % released from PEG alkynoate-TREN gels (Table 4, 24 h, replicate B): 7.325% | % released from PEG alkynoate-TREN gels (Table 4, 24 h, replicate C): 3.032% | % released from PEG alkynoate-TREN gels (Table 4, 96 h, average): 12.3% | % released from PEG alkynoate-TREN gels (Table 4, 96 h, replicate A): 8.246% | % released from PEG alkynoate-TREN gels (Table 4, 96 h, replicate B): 9.349% | % released from PEG alkynoate-TREN gels (Table 4, 96 h, replicate C): 19.32%
